Earlier results as cited in US6420311B1, “Polyether diamine—based surfactant adjuvants and compositions thereof” (Huntsman Petrochemical Corporation, priority 1999, dated 2002).

Settings: free acid form

O=C(O)CNCP(=O)(O)O [glyphosate, N-phosphonomethylglycine]
water solubility: low
